Type in all cases: functional
The species named for experiment [1] is Cavia porcellus. In words: Agonist activity in guinea pig ileum at a concentration of 1 uM expressed as percent maximal response.
For experiment [2], the species on record is Mus musculus. In words: Agonist activity in mouse vas deferens at a concentration of 200 nM expressed as percent maximal response.
Experiment [3] is filed under the species Mus musculus. In words: Inhibitory activity in mouse vas deferens, n=4.
The species named for experiment [4] is Cavia porcellus. In words: Inhibitory activity in guinea pig longitudinal muscle preparation, n=2. As to conditions: Muscle tissue.

pIC50: −log10 of the molar value.

Regarding `CN1CCC23c4c5ccc(O)c4O[C@H]2C=C[C@H](N(CCCl)CCCl)[C@H]3C1C5` (some centres undefined), the Activity in experiment [1] came to 15%; in experiment [2], 25%.

Take `CN1CCC23c4c5ccc(O)c4O[C@H]2C=C[C@H](N=[N+]=[N-])[C@H]3C1C5` (some centres undefined): the pIC50 in experiment [3] is 7.34; in experiment [4] it was 6.47.

Values taken from ChEMBL document CHEMBL1122705, “Synthesis and pharmacological evaluation of an 8 beta-bis(2-chloroethyl)amino opiate as a nonequilibrium opioid receptor probe” (J Med Chem, 1984).
